“And” between values parts separate entries of the source, which are not always exact repeats. Identical values can stand only once. Bridge positions count the residues as written; N and C are the ends. Square brackets hold non-standard residues; d marks the D form. Peptide text beside a SMILES is read from it. * marks the point of attachment. DO3A(CH2CH2SO2CH2CH2) = O=C(O)CN1CCN(CCS(=O)(=O)CC*)CCN(CC(=O)O)CCN(CC(=O)O)CC1; Ala(4-thiazolyl) = N[C@@H](Cc1cscn1)C(=O)O
Columns and labels:
[1] = rat in vivo competition with precursor peptide; set-up: species or system Sprague Dawley rats; conditions: male, Sprague Dawley, total radioactivity, tracer alone, 40 min (S01) or 60 min (S02) p.i., S02 baseline stated for liver and spleen, read-out: baseline binding in the liver
Protocol: (§1) A competition study with each respective radiotracer precursor peptide was performed to investigate in vivo selectivity in selected tissues (the blood, heart, lung, liver, pancreas, spleen, kidney, muscle, and bone marrow).
(§2) Animals in each group (n = 4 for each radioligand) were co-injected with 1 mg/kg of either unlabelled DO3A-S01-GCG or -DO3A-S02-GCG peptide to determine the fraction of binding in each tissue which was receptor mediated.
(§3) The time point of euthanasia for each radiotracer was determined based on liver-to-blood ratio obtained from the biodistribution study above, as well as the radionuclide half-life and known radiotracer precursor half-life in blood plasma. Tissue resection and analysis of radioactive uptake in each tissue (expressed as SUV) were performed and analyzed as described above.

[2] = target: T1, GCG receptor (Rattus norvegicus, UniProt P30082); assay: rat in vivo competition with precursor peptide; set-up: species or system Sprague Dawley rats; conditions: 1 mg/kg unlabelled precursor
T1 construct: tissue Taconic, Denmark (animals); host or cells: organs of living Sprague Dawley rats (liver, spleen, bone marrow and others)
T1 sequence (P30082 27-485): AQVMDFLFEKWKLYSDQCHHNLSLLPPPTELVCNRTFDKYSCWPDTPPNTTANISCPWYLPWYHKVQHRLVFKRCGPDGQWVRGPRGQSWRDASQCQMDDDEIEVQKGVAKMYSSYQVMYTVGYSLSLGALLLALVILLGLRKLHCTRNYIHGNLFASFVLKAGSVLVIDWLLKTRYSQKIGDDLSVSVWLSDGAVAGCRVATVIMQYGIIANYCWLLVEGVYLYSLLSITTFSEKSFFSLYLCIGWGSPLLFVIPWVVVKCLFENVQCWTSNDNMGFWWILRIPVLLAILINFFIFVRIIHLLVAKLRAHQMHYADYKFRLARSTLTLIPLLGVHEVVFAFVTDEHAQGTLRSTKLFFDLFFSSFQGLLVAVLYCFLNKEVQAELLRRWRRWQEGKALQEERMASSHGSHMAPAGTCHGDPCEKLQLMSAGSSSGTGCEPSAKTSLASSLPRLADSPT
Protocol: as §1, §2, §3

[3] = target: T2, GCGR in human liver sections (Homo sapiens, UniProt P47871); assay: in vitro autoradiography, liver sections; format: binding
T2 construct: tissue Uppsala Biobank (sample collection 827); host or cells: frozen human liver sections
T2 sequence (P47871 26-477): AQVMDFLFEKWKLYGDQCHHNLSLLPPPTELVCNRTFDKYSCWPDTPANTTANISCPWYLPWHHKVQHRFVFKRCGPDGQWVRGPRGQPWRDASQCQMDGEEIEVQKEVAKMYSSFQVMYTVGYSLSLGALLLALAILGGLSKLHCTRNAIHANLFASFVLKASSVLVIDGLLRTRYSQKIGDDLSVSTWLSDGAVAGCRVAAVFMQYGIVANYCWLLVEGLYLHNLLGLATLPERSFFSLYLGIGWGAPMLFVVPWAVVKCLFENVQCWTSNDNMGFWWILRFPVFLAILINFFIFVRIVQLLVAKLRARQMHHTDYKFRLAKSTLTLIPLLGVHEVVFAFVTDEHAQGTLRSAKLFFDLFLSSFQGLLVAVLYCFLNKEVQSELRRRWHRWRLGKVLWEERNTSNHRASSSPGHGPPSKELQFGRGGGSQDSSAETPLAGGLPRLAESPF
Protocol: (§4) Biopsies from donor human liver and pancreas were obtained from Uppsala Biobank (sample collection 827), and their use was approved by local ethical review board (EPN 2015/401).
(§5) Sections were added in duplicates in each individual assay, and each experiment was repeated at least three times with different batches of radioligand, except for rat sections that were only performed in one assay.
(§6) After incubation, the sections were washed three times in 150 mL PBS. Sections were carefully dried at 37 °C and then exposed against a digital phosphorimager plate overnight together with a 10-μl droplet of radioactive reference (cross-calibrated against a gamma counter) on an absorbent paper attached to an object glass. The phosphor imager plates were scanned using a Cyclone Plus Phosphor imager (Perkin Elmer) at 600 dpi, and the resulting autoradiograms analyzed by ImageJ software (NIH, Bethesda). Pixel values in counts/mm^2 were converted to Bq/mm^2 by the included reference. Bq/mm^2 was further converted to fmol/mm^2 by the known specific radioactivity (fmol/Bq) of each batch of radiopharmaceutical.

[4] = in vitro autoradiography, pancreas sections; format: binding; conditions: human pancreas, 5–10 nM tracer, n = 3
Protocol: as §4, §5, §6

[5] = target: T3, GCGR in rat liver sections (Rattus norvegicus, UniProt P30082); assay: in vitro autoradiography, liver sections; format: binding, Sprague Dawley rat
T3 construct: from tissue; host or cells: frozen Sprague Dawley rat liver sections
T3 sequence (P30082 27-485): as the sequence (P30082 27-485) above
Protocol: (§7) Liver and pancreas tissues were collected post-mortem from cynomolgus monkeys (NHP) and Sprague Dawley rats. The use of animal tissues collected post-mortem was approved by the Animal Research Ethical Committee of the Uppsala Region and was performed according to the Uppsala university guidelines on animal experimentation (UFV 2007/724).
as §5, §6

[6] = data not shown
[7] = in vitro autoradiography, pancreas sections; format: binding, cynomolgus monkey (NHP); conditions: NHP pancreas, 5–10 nM tracer
Protocol: as §7, §5, §6

[8] = in vitro autoradiography, pancreas sections; format: binding, Sprague Dawley rat; conditions: rat pancreas, 5–10 nM tracer, n = 1
Protocol: as §7, §5, §6

[9] = target: T4, human GCGR (HEK293 cells transfected with human GCGR) (Homo sapiens, UniProt P47871); assay: in vitro autoradiography, blocking on sections of frozen pellet of GCGR-transfected cells; format: binding; conditions: n = 3
T4 construct: expressed in transfected cells; host or cells: HEK293
T4 sequence (P47871 26-477): as the sequence (P47871 26-477) above
Protocol: as §5, §6

[10] = system: GCGR in NHP liver sections; assay: in vitro autoradiography, liver sections; format: binding, cynomolgus monkey (NHP)
Protocol: as §7, §5, §6

[11] = human predicted dosimetry (OLINDA/EXM 1.1, from rat biodistribution)
Protocol: The dosimetry calculations were performed as described previously for [^68Ga]Ga-DO3A-VS-Cys^40-Exendin4 [11].
Briefly, animal-derived tissue uptake was normalized to that of human tissues (using tissue weights of whole body adult reference male and female phantoms). The normalized SUVs were then un-decay corrected to their respective time point to reflect the actual radiation burden in each tissue. The tissue residence times (MBq-h/MBq) were assessed by trapezoidal approximation of the un-decay-corrected human SUV biodistribution data. The tissue washout from the last time point (180 min) to infinity was estimated by a single mono-exponential fit.
The estimation of the absorbed dose was performed by the OLINDA/EXM 1.1 software (Vanderbilt University, USA) where the calculations were based on the adult reference male or female phantoms to obtain the intended absorbed dose estimate in humans (ICRP60). The organ-specific doses are reported as mGy/MBq (effective dose as mSv/MBq). The amount of MBq that can be safely administered annually (MBq/year) was calculated for each organ as well as the effective dose, by dividing the limiting dose (10 mSv/year for the effective dose, 150 mGy/year for all tissues except for the red marrow and uterus with 50 mGy/year) by the dose (mGy/MBq or mSv/MBq).

[12] = extrapolated from rat biodistribution

SMILES: CC[C@H](C)[C@H](NC(=O)[C@H](Cc1ccccc1)NC(=O)[C@H](CCC(=O)O)NC(=O)[C@@H]1CCCCNC(=O)CC[C@H](NC(=O)[C@H](CC(=O)O)NC(=O)[C@H](CC(C)C)NC(=O)[C@H](CCC(N)=O)NC(=O)[C@H](CCCCN)NC(=O)[C@H](CO)NC(=O)[C@H](Cc2ccc(O)cc2)NC(=O)[C@H](CC(=O)O)NC(=O)[C@H](CO)NC(=O)[C@@H](NC(=O)[C@H](Cc2ccccc2)NC(=O)[C@@H](NC(=O)CNC(=O)[C@H](CCC(N)=O)NC(=O)[C@@H](CO)NC(=O)[C@@H](N)Cc2cscn2)[C@@H](C)O)[C@@H](C)O)C(=O)N[C@@H](CCC(N)=O)C(=O)N[C@@H](CCCNC(=N)N)C(=O)N[C@@H](C)C(=O)N1)C(=O)N[C@@H](CCC(=O)O)C(=O)N[C@@H](Cc1c[nH]c2ccccc12)C(=O)N[C@@H](CC(C)C)C(=O)N[C@@H](CC(C)C)C(=O)N[C@@H](C)C(=O)N[C@H](C(=O)NCC(=O)N1CCC[C@H]1C(=O)N[C@@H](CCC(=O)O)C(=O)N[C@@H](CO)C(=O)NCC(=O)N[C@@H](C)C(=O)N1CCC[C@H]1C(=O)N1CCC[C@H]1C(=O)N1CCC[C@H]1C(=O)N[C@@H](CO)C(=O)N[C@@H](CSCCS(=O)(=O)CCN1CCN(CC(=O)O)CCN(CC(=O)O)CCN(CC(=O)O)CC1)C(N)=O)[C@@H](C)O [[^68Ga]Ga-DO3A-S01-GCG, metal not drawn] (H-[Ala(4-thiazolyl)][dS]QGTFTSDYSKQLDEQRAKEFIEWLLATGPESGAPPPSC(DO3A(CH2CH2SO2CH2CH2))-NH2; lactam 16-20)
- SUV [1]: > 2 SUV
- decrease of binding in the spleen by co-injection of precursor peptide ([2]; 40 min (S01) or 60 min (S02) p.i., n = 4 per group): > 80%
- decrease of binding in the liver by co-injection of precursor peptide ([2]; 40 min (S01) or 60 min (S02) p.i., n = 4 per group, 1 mg/kg): > 80% and 84%
- effect of co-injection of precursor peptide on kidney uptake ([2]; 40 min p.i.): not affected
- decrease of binding in the bone marrow by co-injection of precursor peptide ([2]; 40 min p.i., n = 4 per group): > 80%
- effect of GLP-1 in excess on tracer binding to liver sections ([3]; 1 μM GLP-1, n = 3): did not induce inhibition
- inhibition of tracer binding to liver sections by co-incubation with own precursor peptide ([3]; 10 μM precursor, n = 3): did not increase the degree of inhibition
- binding in pancreas sections [4]: Only background binding
- effect of GLP-1 in excess on tracer binding to liver sections ([5]; 1 μM GLP-1, n = 1): did not induce inhibition
- inhibition of tracer binding to liver sections by co-incubation with own precursor peptide ([5]; 10 μM precursor, n = 1): did not increase the degree of inhibition
- exposure [6]: 1570 ng·h/mL
- plasma t½ [6]: 15 min
- binding in pancreas sections [7]: Only background binding
- binding in pancreas sections [8]: Only background binding
- effect of co-incubation with GCG on binding to sections of GCGR-transfected cell pellet ([9]; 10 μM GCG): completely abolished
- effect of co-incubation with own precursor peptide on binding to sections of GCGR-transfected cell pellet ([9]; 10 μM precursor): completely abolished
- effect of GLP-1 in excess on tracer binding to liver sections ([10]; 1 μM GLP-1): did not induce inhibition
- inhibition of tracer binding to liver sections by co-incubation with own precursor peptide ([10]; 10 μM precursor): did not increase the degree of inhibition
- inhibition of tracer binding to liver sections by co-incubation with GCG ([10]; 5–10 nM tracer, 10 μM GCG, 60 min RT, n = 3 (S01), n = 4 (S02)): > 60%
- human predicted absorbed dose, kidneys [11, 12]: 0.53 mGy/MBq
- human predicted whole body effective dose [11, 12]: 20.2 μSv/MBq
- calculated maximal annual dosing, limited by whole body effective dose ([11]; limit 10 mSv/year): 495 MBq
- calculated maximal annual dosing, by bone marrow absorbed dose ([11]; limit 50 mGy/year): > 2000 MBq
- calculated maximal annual dosing, limited by kidney dose ([11]; limit 150 mGy/year): 278 MBq

From PMC6377692 (EJNMMI Research, 2019)
